# Laboratory results published in ChEMBL document CHEMBL1201862, “PubChem BioAssay data set” (2004).
#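 Grown in 96-well plates, cells were treated for 48 hours with each compound at five concentrations. Insufficient inhibition: endpoint recorded as highest concentration tested. At the GI50, growth is halved.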 Calls of active or inactive are those of the source. Rule as the data show it: active = GI50 up to about 1.1 µM and inactive = higher.
# Columns and labels:
# Test in all cases: NCI tumour cell line growth inhibition, 48 h
# CAKI-1 = tested on: CAKI-1
# CCRF-CEM = tested on: CCRF-CEM
# DU-145 = tested on: DU-145
# EKVX = tested on: EKVX
# HCC 2998 = tested on: HCC 2998
# HCT-116 = tested on: HCT-116
# HCT-15 = tested on: HCT-15
# HOP-92 = tested on: HOP-92
# HT-29 = tested on: HT-29
# Malme-3M = tested on: Malme-3M
# NCI-H522 = tested on: NCI-H522
# OVCAR-4 = tested on: OVCAR-4
# SF-295 = tested on: SF-295
# SF-539 = tested on: SF-539
# SK-OV-3 = tested on: SK-OV-3
# SN12C = tested on: SN12C
# SW-620 = tested on: SW-620
# T47D = tested on: T47D
# UO-31 = tested on: UO-31
# HL-60 = tested on: HL-60
Structure (SMILES),GI50 (CAKI-1),GI50 (CCRF-CEM),GI50 (DU-145),GI50 (EKVX),GI50 (HCC 2998),GI50 (HCT-116),GI50 (HCT-15) [µM],GI50 (HOP-92),GI50 (HT-29),GI50 (Malme-3M),GI50 (NCI-H522),GI50 (OVCAR-4),GI50 (SF-295),GI50 (SF-539),GI50 (SK-OV-3),GI50 (SN12C),GI50 (SW-620),GI50 (T47D),GI50 (UO-31),GI50 (HL-60)
CN(C)Cc1cc(C(C)(C)C)cc(CN(C)C)c1O,> 100 µM (inactive),21.4 µM (inactive),83.8 µM (inactive),40.6 µM (inactive),17.1 µM (inactive),35.6 µM (inactive),30.4,> 100 µM (inactive),35.8 µM (inactive),> 100 µM (inactive),43.5 µM (inactive),> 100 µM (inactive),44.6 µM (inactive),86.7 µM (inactive),> 100 µM (inactive),73.3 µM (inactive),66.1 µM (inactive),> 100 µM (inactive),21.3 µM (inactive),
COc1ccc(NC=O)c(C(=O)CCNC(C)=O)c1,> 100 µM (inactive),> 100 µM (inactive),> 100 µM (inactive),> 100 µM (inactive),,> 100 µM (inactive),> 100,> 100 µM (inactive),> 100 µM (inactive),,> 100 µM (inactive),> 100 µM (inactive),> 100 µM (inactive),> 100 µM (inactive),> 100 µM (inactive),> 100 µM (inactive),> 100 µM (inactive),> 100 µM (inactive),> 100 µM (inactive),> 100 µM (inactive)
Brc1ccc2c(c1)C1=C(CO2)Cc2ccccc2O1,18.2 µM (inactive),39.4 µM (inactive),21.5 µM (inactive),20.9 µM (inactive),17.2 µM (inactive),16.4 µM (inactive),17.3,15.6 µM (inactive),23.3 µM (inactive),20.7 µM (inactive),19.7 µM (inactive),16.8 µM (inactive),18.1 µM (inactive),18.6 µM (inactive),21.5 µM (inactive),18.8 µM (inactive),23.4 µM (inactive),13.1 µM (inactive),16.5 µM (inactive),
CSc1nc(C)cc(Nc2ccc(O)c(CN3CCCCC3)c2)n1,> 100 µM (inactive),,64.3 µM (inactive),27.5 µM (inactive),,27.8 µM (inactive),86.3,72.4 µM (inactive),20.4 µM (inactive),48.6 µM (inactive),72.1 µM (inactive),> 100 µM (inactive),37.9 µM (inactive),43.3 µM (inactive),> 100 µM (inactive),56.6 µM (inactive),71.9 µM (inactive),68.1 µM (inactive),48.1 µM (inactive),
CCCC[P+](CCCC)(CCCC)C(C(=O)OC)C(C(=O)OC)=C1SC(C(=O)OC)=C(C(=O)OC)S1 (stereo unspecified),,,> 100 µM (inactive),> 100 µM (inactive),,> 100 µM (inactive),> 100,> 100 µM (inactive),> 100 µM (inactive),> 100 µM (inactive),> 100 µM (inactive),> 100 µM (inactive),> 100 µM (inactive),,> 100 µM (inactive),> 100 µM (inactive),> 100 µM (inactive),> 100 µM (inactive),> 100 µM (inactive),
C=CCN(Cc1ccncc1)C(=O)C(O)(c1ccccc1)c1ccccc1,31.5 µM (inactive),35.8 µM (inactive),> 100 µM (inactive),35.9 µM (inactive),> 100 µM (inactive),48.2 µM (inactive),65.9,,59.3 µM (inactive),51.9 µM (inactive),34.3 µM (inactive),,57.3 µM (inactive),70.6 µM (inactive),> 100 µM (inactive),> 100 µM (inactive),> 100 µM (inactive),39.9 µM (inactive),17.5 µM (inactive),35.3 µM (inactive)
CNC(=O)N1CN(c2ccccc2)C2(CCN(Cc3ccccc3)CC2)C1=O,> 100 µM (inactive),53.5 µM (inactive),> 100 µM (inactive),74.6 µM (inactive),9.84 µM (inactive),24.9 µM (inactive),15,,15.6 µM (inactive),70.1 µM (inactive),> 100 µM (inactive),,> 100 µM (inactive),34.7 µM (inactive),4.18 µM (inactive),> 100 µM (inactive),46.1 µM (inactive),1.87 µM (inactive),11.3 µM (inactive),43.1 µM (inactive)
CC(=O)NCCSC(=O)c1ccccc1,0.0226 µM (active),< 0.0153 µM (active),0.199 µM (active),2.77 µM (inactive),,0.0488 µM (active),0.156,0.918 µM (active),0.167 µM (active),0.119 µM (active),0.215 µM (active),1.38 µM (inactive),0.147 µM (active),0.387 µM (active),1.13 µM (inactive),0.0853 µM (active),0.0295 µM (active),0.197 µM (active),0.264 µM (active),
CCOC(CCCN1CCC2(CC1)C(=O)N(C)CN2c1ccccc1)(OCC)c1ccc(F)cc1,6.59 µM (inactive),4.42 µM (inactive),6.87 µM (inactive),2.14 µM (inactive),8.85 µM (inactive),3.82 µM (inactive),10.1,,3.49 µM (inactive),16.2 µM (inactive),16.9 µM (inactive),,12.7 µM (inactive),3.77 µM (inactive),21.8 µM (inactive),10.3 µM (inactive),10.4 µM (inactive),4.95 µM (inactive),7.01 µM (inactive),13 µM (inactive)
COc1ccc(-c2nc(-c3ccc(OC)cc3)n(-c3ccccc3)n2)cc1,> 100 µM (inactive),> 100 µM (inactive),> 100 µM (inactive),56.4 µM (inactive),,> 100 µM (inactive),> 100,52 µM (inactive),19.9 µM (inactive),,11.8 µM (inactive),31.7 µM (inactive),> 100 µM (inactive),> 100 µM (inactive),> 100 µM (inactive),> 100 µM (inactive),> 100 µM (inactive),22.9 µM (inactive),21.6 µM (inactive),30.5 µM (inactive)
O=C(N/N=C\c1ccc([N+](=O)[O-])cc1)Nc1ccc2ccccc2c1,37.5 µM (inactive),35.3 µM (inactive),71.3 µM (inactive),44.6 µM (inactive),25.4 µM (inactive),24.3 µM (inactive),38.6,28.2 µM (inactive),27.1 µM (inactive),22.5 µM (inactive),24.6 µM (inactive),21.5 µM (inactive),49.4 µM (inactive),20.7 µM (inactive),31.4 µM (inactive),45.5 µM (inactive),23.1 µM (inactive),56.1 µM (inactive),82.4 µM (inactive),
CCN(CC)/N=N/c1c(C(N)=O)n[nH]c1C,17.9 µM (inactive),18.3 µM (inactive),69.5 µM (inactive),26.9 µM (inactive),> 100 µM (inactive),> 100 µM (inactive),63.7,11.3 µM (inactive),> 100 µM (inactive),64.3 µM (inactive),65.2 µM (inactive),> 100 µM (inactive),38.1 µM (inactive),29.5 µM (inactive),22.1 µM (inactive),40.6 µM (inactive),71.3 µM (inactive),60.3 µM (inactive),20.7 µM (inactive),
